# Data reported in patent publication US11896704B2, “Compounds useful for the treatment and/or care of the skin, hair, nails and/or mucous membranes” (LUBRIZOL ADVANCED MATERIALS, INC., priority 2017, dated 2024).
# What was measured:
# [1] = system: PER2 (period circadian clock 2); assay: PER genes expression in young and old HEKa, real time PCR: PER2; assay type: cell-based, Human; conditions: 0.5 mg/ml
# Protocol: In Vitro Study of PER Genes Expression in Young and Old Human Epidermal Keratinocytes (HEKa) Using Real Time PCR Arrays. Human Epidermal Keratinocytes, (HEKa) cells (Life Technologies) from donor one and donor two are seeded at 3.0×10^5 cells/well in 12-well plates and incubated in culture medium, Keratinocyte growth medium supplemented with Mix C39016-CaCl2 solution (Promocell). For synchronization, cells were subjected to two alternative cycles of 12 hours each at 37° C. in 5% CO2 humidified air (day mode) and 33° C. in 5% CO2 humidified air (night mode). 12 hours after starting synchronization, cells are incubated with the synthetic peptide […] (PEP-1, H-[SEQ ID. NO. 2]-NH2) at 0.5 mg/ml in culture medium. Cells treated with medium alone are used as basal condition. At the end of synchronization, cell lysates are collected at 7:30 hour (early morning point). […] After RNA elution, quantification and analysis of purity of RNA samples are performed with a nanodrop (Thermo). […] SYBR Green binds to double-stranded DNA molecules and emits fluorescence which is quantified, and the fluorescence intensity is proportional to the amount of the product in the PCR reaction. […] Fold change relative to the expression of the sample genes and reference genes is calculated using normalized expression (ΔΔ(Ct)) method using CFX Manager SoftwareTM (BioRad).
# [2] = system: Phenion Full-Thickness Skin models; assay: Hydration level in synchronized human full-thickness skin models; assay type: cell-based; conditions: 0.5 mg/ml, 48 hours of treatment, one assay
# Protocol: Measurement of Hydration Level in Synchronized Human Full-Thickness Skin Models.
# Immediately after arrival, the Phenion® Full-Thickness Skin models (HENKEL) are placed in Petri dishes (5 skin models per condition) according to the supplier's instructions in ALI medium (HENKEL). After 72 hours incubation at 37° C., 5% CO2, a synchronization protocol is initialized. For this purpose, skin models are subjected to two alternative cycles of 12 hours each at 37° C. in 5% CO2 humidified air (day mode) and 33° C. in 5% CO2 humidified air (night mode). At the beginning of the synchronization, pre-treatment measurement of hydration at 7:30 hours is tested in skin models. Hydration measurements of the epidermis are performed with DPM 9003 BT™ (NOVA® Technology Corporation) and with MoistureMeter SC™ (Delphin). For pre-treatment measurements, skin model's surface is washed with 5 ml of Phosphate Buffered Saline (PBS, Sigma). […]
# The results in Table 13 show the mean of the percentage of hydration levels at 7:30 hours after 48 hours of treatment relative to hydration levels in basal conditions. […] These values are calculated for one assay. […]
# The results in Table 14 represent the mean of the percentage of hydration levels at 7:30 hours after 48 hours of treatment relative to hydration levels in basal conditions at the same time. […] These values are calculated for one assay. […]
# JARID1A protein (KDM5A) = assay: JARID1A protein level in synchronized human keratinocytes (HaCaT), ELISA normalized to total protein; assay type: cell-based; conditions: 0.5 mg/ml, 7:30 hours, mean of at least six assays
# Protocol: In Vitro Study of JARID1A Protein Increase Protein Level by the Peptide […] (PEP-1, H-[SEQ ID. NO. 2]-NH2) on Synchronized Human Keratinocytes Using an ELISA Assay Based on Colorimetric Detection. HaCaT cells (human keratinocyte cell line, Deutsches Krebsforschungszentrum) are seeded at a density of 200.000 cells/well (2 wells per condition) in 12-well plates. Cells are seeded in culture medium Dulbecco's Modified Eagle Medium high GlutamaxTM (Fisher Scientific) supplemented with 10% (volume/volume) Fetal Bovine Serum (Cultek). […] Nuclear extracts are assayed to quantify the level of JARID1A protein and total protein concentration. JARID1A protein is quantified using an enzyme linked immunosorbent assay (Human lysine-specific demethylase 5A (KDM5A) (CUSABIO) according to the manufacturer's protocol. In brief, JARID1A protein is detected with the antibodies provided in the kit and quantified by a colorimetric reaction. Absorbance quantification is carried out by using a microplate reader (ClarioStar®, BMG) set to 450 nm and 570 nm. For wavelength correction, readings at 570 nm were subtracted from readings at 450 nm. Total protein concentration of cell lysate is determined by using Pierce BCA Protein Assay Kit (Thermo Scientific). […] After 30 minutes of incubation at 60° C., the change in colour is measured with the absorbance microplate reader (Clariostar®, BMG) at 562 nm. […]
substance,measurement,setting,value
H-Phe-Trp-Met-Lys-Arg-Lys-Arg-Val-Pro-NH2 (H-FWMKRKRVP-NH2) [PEP-1],Fold induction at 7:30 h respect to Basal condition (%),"[1]; PER2, HEKa from donor one",172.0%
same,Fold induction at 7:30 h respect to Basal condition (%),"[1]; PER2, HEKa from donor two",292.0%
same,Hydration level (%),"[2]; 7:30 h, relative to basal conditions 7:30 h, MoistureMeter SC",110.1%
same,Hydration level at 7:30 hours (%),"[2]; relative to basal conditions, DPM9003 BT",131.6%
same,Percentage of JARID1A protein relative to basal condition (%),JARID1A protein (KDM5A),126.84%
